This note sets out measurements from patent publication US9045484B2, “Inhibitors of the BMP signaling pathway” (The Brigham and Women's Hospital, Inc., priority 2008, dated 2015).

Data set [1] in a line: Plasma pharmacokinetics after single oral administration. Format: in vivo. The note with it: C57B16, mouse, oral 3 mg/kg. Here is the method: (§1) The pharmacokinetics of compound 70 was evaluated after a single oral administration (3 mg/kg) in male C57B16 mice on a commercial rodent diet and water ad libitum prior to the study. Compound plasma levels were determined by LC-MS/MS and the pharmacokinetic parameters were determined using WinNonlin software (Pharsight Co., Mountain View, Calif.). Dosing solutions (0.6 mg/mL) were prepared in a vehicle comprising 2% hydropropyl-β-cyclodextrin in phosphate-buffered saline (PBS). Each time point (pre-dose, 15, 30, 60, 120, 240, 360, 480 and 1440 min post-dose) was dosed as N=3. Each blood sample was collected via cardiac puncture after euthanasia with CO2 and placed in chilled tubes containing sodium heparin. Samples were centrifuged at 4° C. at 13,000 rpm for 5 min followed by extracted with acetonitrile and then analyzed.
as §1, with “13.HCl” for “compound 70”

Data set [2] deals with BMP-induced phosphorylation of SMAD1/5/8. Description: BMP4-induced phosphorylation of SMAD1/5/8, cytoblot (cellular ELISA). Format: cell-based, murine. The note with it: Mus musculus. Here is the method:
Murine pulmonary artery smooth muscle cells were isolated, explanted and cultured as previously described (see […] et al. Am. J. Physiol. Lung Cell Mol. Physiol. 280:[…], 2001) and then grown to confluence in 96 well tissue culture plates. Cells were incubated in serum-free medium for 18 h, and then incubated with recombinant BMP2, BMP4, BMP6, BMP9, GDF5, TGF-β, or Activin A ligands (R&D Systems, Minneapolis, Minn.) at varying concentrations in duplicate for 20 minutes. […] Specificity for BMP-mediated signaling was determined separately using a modification of the cellular ELISA technique assaying for the activation of SMAD2 or SMAD3 via TGF-β, or Activin A. A corresponding IC50 was calculated for the effects of these compounds upon those signaling pathways.
On the technique in general: In an ELISA, binding on a coated surface is turned into a signal by an enzyme label.

The nature of data set [3]: Serum iron levels (Ferene S assay) after IP injections. Format: in vivo, C57BL/6 mice. The note with it: two IP injections 10 mg/kg 12 h apart; 24 h after first injection. The method, then: In C57BL/6 mice, two IP injections of dorsomorphin (10 mg/kg) 12 h apart increased serum iron levels, measured by the Ferene S assay (ThermoFisher Scientific, Waltham, Mass.) measured 24 h after first injection by over 60%. (see FIG. 4; n=8 vehicle, n=7 dorsomorphin, P<0.001). Results are expressed as mean±SD.

A further data set concerns PDGFR-mediated signaling. Description: PDGF-induced AKT phosphorylation, cellular ELISA in PaSMCs. Format: cell-based, murine. Conditions: Mus musculus, PASMC; compounds 10 min, then PDGF 30 min; FIG. 2; read-out: functional IC50, PDGF-induced AKT phosphorylation. Here is the method:
To test the relative effects of dorsomorphin and structurally-related compounds upon PDGFR-mediated signaling, PDGF-induced AKT phosphorylation was measured by cellular ELISA via the detection of phospho-AKT in PaSMCs treated with compounds for 10 min. followed by PDGF for 30 min.

Data set [4] can be described thus: Microsomal stability in pooled mouse liver microsomes. The class given is in vitro ADME. The note with it: 0.5 mg/mL microsome protein, 1 mM NADPH. The method, then: Test compound (3 μM final concentration) along with 0.5 mg/mL microsome protein and 1 mM NADPH was incubated for 0, 5, 15, 30 and 60 min. Incubation of test compound and microsomes in the absence of NADPH served as a negative control. The samples were quenched with methanol and centrifuged for 20 min at 2500 rpm to precipitate proteins. Sample supernatants were analyzed (N=3) by LC/MS. The ln peak area ratio (compound peak area/internal standard peak area) was plotted against time and the slope of the line determined to give the elimination rate constant [k=(−1)(slope)]. The half life (t1/2 in minutes) and the in vitro intrinsic clearance (CLint in μL/min/mg protein) values were calculated according to the following equations, where V=incubation volume in μL/mg protein: […]

Data set [5] can be described thus: Plasma pharmacokinetics after single bolus intraperitoneal administration. Format: in vivo, C57B16 mice. Conditions: C57B16, mouse, Table 3, male mice, IP 3 mg/kg; for Tmax: read-out: tmax. Here is the method: as §1, with “13.HCl” for “compound 70”, “bolus intraperitoneal” for “oral”, “male and female” for “male”, “(pre-dose, 5, 10,” for “(pre-dose,”, “480,” for “360, 480 and”, “N=3/sex.” for “N=3.”
The pharmacokinetics of 44.HCl and 37.HCl were evaluated after a single bolus intraperitoneal administration (3 mg/kg) in male C57B16 mice on a commercial rodent diet and water ad libitum prior to the study. Compound plasma levels were determined by LC-MS/MS and the pharmacokinetic parameters were determined using WinNonlin software (Pharsight Co., Mountain View, Calif.). Dosing solutions (0.6 mg/mL) were prepared in a vehicle comprising 2% hydropropyl-β-cyclodextrin in phosphate-buffered saline (PBS). Each time point (pre-dose, 5, 10, 15, 30, 60, 120, 240, 480, 1440 min post-dose) was dosed as
N=3/sex. Each blood sample was collected via cardiac puncture after euthanasia with CO2 and placed in chilled tubes containing sodium heparin. Samples were centrifuged at 4° C. at 13,000 rpm for 5 min followed by extracted with acetonitrile and then analyzed.

For data set [6], the system named is IL6-induced hepcidin expression in HepG2 cells. Description: IL6-induced hepcidin expression in HepG2 hepatoma cells. The class given is cell-based, human. The note with it: pretreatment; data not shown. The method, then: HepG2 cells pretreated with compound 13 (5-625 nM) or vehicle for 30 min. were incubated with IL6 (50 ng/mL) for 1.5 h. Cells were harvested, and hepcidin mRNA and 18S rRNA levels were measured by quantitative RT-PCR. Changes in gene expression were normalized to 18S ribosomal RNA levels using the relative cycle threshold method.

The mark [7] stands for this setting: approximate IC50, cellular ELISA, murine pulmonary artery smooth muscle cells, read-out: IC50 for inhibition of BMP-induced phosphorylation of SMAD1/5/8.

Where a name gives a salt, the structure may show the parent alone. Read-outs that look alike come from different tables or passages of the source. Where only a bound is given, the exact number is not on record here.

Usually AUC(0-inf) stands for the area under the concentration-time curve extrapolated to infinity. A lower AUC(0-inf) goes with low exposure. The Cmax is the highest concentration seen after dosing. For orientation: Tmax means the time from dosing to the highest level. Consider `Cl.c1ccc2c(-c3cnn4cc(-c5ccc(N6CCNCC6)cc5)cnc34)ccnc2c1` [13•HCl, 4-[6-(4-piperazin-1-ylphenyl)pyrazolo[1,5-a]pyrimidin-3-yl]quinoline hydrochloride salt], for which, in data set [1] (Table 5, male mice), the AUC(0-inf) was found to be 919 ng·h/mL, the Cmax was 690 nM, the Tmax is 1 h and the half-life is 1.1 h.
Take `c1cc(-c2cnn3cc(-c4ccc(OCCN5CCCCC5)cc4)cnc23)ccn1` [Dorsomorphin, reference compound]: the IC50 in data set [2] (FIG. 1, approximate, read-out: functional IC50, BMP4-induced SMAD1/5/8 phosphorylation) was approximately 400 nM; with PDGFR-mediated signaling, approximately 500 nM. In addition, the “increase of serum iron levels” value in data set [3] is “over 60%”. The half-life at 3 μM in data set [4] (read-out: half-life (t1/2) in mouse liver microsomes) is 0.173 h. Further, in data set [4] (read-out: intrinsic clearance (CLint) in mouse liver microsomes), the microsomal CLint at 3 μM turned out to be 133 ± 6.6 µL/min/mg.
Regarding `COC(=O)c1cc(-c2ccnc3ccccc23)c2ncc(-c3ccc(OC)cc3)cn12` [4-OMe-Ph, 4-quinolinyl, H, N, CCO2Me, Methyl 3-(4-methoxyphenyl)-8-quinolin-4-yl-pyrrolo[1,2-a]pyrimidine-6-carboxylate], the IC50 in data set [2] (setting [7]) is more than 20000 nM.
Regarding `COc1ccc(-c2ccc3c(-c4ccnc5ccccc45)cnn3c2)cc1` [4-OMe-Ph, 4-quinolinyl, H, CH, N, 4-[6-(4-Methoxyphenyl)pyrazolo[1,5-a]pyridin-3-yl]quinoline], the IC50 in data set [2] (setting [7]) was less than 500 nM.
Consider `COC1(c2ccc(-c3cnc4c(-c5ccnc6ccccc56)cnn4c3)cc2)CCNCC1` [44•HCl, 4-(6-(4-(4-methoxypiperidin-4-yl)phenyl)pyrazolo[1,5-a]pyrimidin-3-yl)quinoline], for which, in data set [5], the AUC(0-inf) amounted to 583 ng·h/mL, the Cmax amounted to 660 nM, the half-life was 1.4 h and the time of peak concentration (Tmax) was less than 0.25 h.
The like results for `c1ccc2c(-c3cnn4cc(-c5ccc(N6CCNCC6)cc5)ccc34)ccnc2c1` [37•HCl, 4-[6-(4-Piperazin-1-ylphenyl)pyrazolo[1,5-a]pyridin-3-yl]-quinoline] were, in that order, 207 ng·h/mL, 290 nM, 2.2 h and less than 0.25 h.
For `COc1ccc(-c2cnc3c(-c4ccnc5ccccc45)ccn3c2)cc1` [4-OMe-Ph, 4-quinolinyl, H, N, CH, 4-[3-(4-Methoxyphenyl)pyrrolo[1,2-a]pyrimidin-8-yl]quinoline], the IC50 in data set [2] (setting [7]) is more than 20000 nM.
Take `C[C@@H]1C[C@@H]([C@H](O)CC2CC(=O)NC(=O)C2)C(=O)[C@@H](C)C1` [cycloheximide, reference compound]: the “ability of IL6 to induce hepcidin gene expression” value in data set [6] is listed as “did not block the ability of IL6 to induce hepcidin gene expression”.
In the case of `OC1(c2ccc(-c3cnc4c(-c5ccnc6ccccc56)cnn4c3)cc2)CCNCC1` [Compound 70, 4-(4-(3-(quinolin-4-yl)pyrazolo[1,5-a]pyrimidin-6-yl)phenyl)piperidin-4-ol], in data set [1] (Table 4, male mice), the AUC(0-inf) amounted to 143 ng·h/mL, the Cmax came out at 100 nM, the time of peak concentration (Tmax) stood at 0.25 h and the half-life is 1.7 h.
Consider `COc1ccc(-c2cnc3c(-c4ccncc4)cnn3c2)cc1` [4-OMe-Ph, 4-Py, H, N, N, 6-(4-Methoxyphenyl)-3-pyridin-4-yl-pyrazolo[1,5-a]pyrimidine], for which, in data set [2] (setting [7]), the IC50 is more than 1000 nM.
